Data reported in ChEMBL document CHEMBL3885881, “DrugMatrix”.

Organism: Rattus norvegicus
Assay: DrugMatrix - Regimen: Daily Repeat
Type: toxicity, organism-based, Sprague-Dawley
Parameters: regimen Daily Repeat, gender Male, age 6-8 weeks
Conditions: in vivo, sc, route subcutaneous, […]; for ABSOLUTE BASOPHIL / ABSOLUTE EOSINOPHIL / ABSOLUTE LYMPHOCYTE / ABSOLUTE MONOCYTE / ABSOLUTE SEGMENTED NEUTROPHIL / BASOPHIL / EOSINOPHIL / ERYTHROCYTE COUNT / HEMATOCRIT / LEUKOCYTE COUNT / MEAN CORPUSCULAR HEMOGLOBIN / MEAN CORPUSCULAR HEMOGLOBIN CONCENTRATION / MEAN CORPUSCULAR VOLUME / MONOCYTE / NEUTROPHIL / NUCLEATED RED BLOOD CELLS / PLATELET COUNT: tissue Blood; for ALANINE AMINOTRANSFERASE / ALBUMIN / ALKALINE PHOSPHATASE / ASPARTATE AMINOTRANSFERASE / BLOOD UREA NITROGEN / CHLORIDE / CHOLESTEROL / CREATINE PHOSPHOKINASE / CREATININE / GLUCOSE / LACTATE DEHYDROGENASE / LIPASE / PHOSPHORUS / POTASSIUM / TOTAL BILIRUBIN / URIC ACID: tissue Plasma
[1] = 0 mg/kg, 72 h, dose level Control, time 3 day
[2] = 0 mg/kg, 120 h, dose level Control, time 5 day
[3] = 79 mg/kg, 72 h, dose level High, time 3 day

Compound: C[C@H]1C[C@H]2[C@@H]3CCC4=CC(=O)C=C[C@]4(C)[C@@]3(F)[C@@H](O)C[C@]2(C)[C@@]1(O)C(=O)CO [BETAMETHASONE]
- ABSOLUTE BASOPHIL [1]: 0 CELLS/uL
- ABSOLUTE EOSINOPHIL [1]: 0 CELLS/uL
- ABSOLUTE LYMPHOCYTE [1]: 10887 CELLS/uL
- ABSOLUTE MONOCYTE [1]: 56 CELLS/uL
- ABSOLUTE SEGMENTED NEUTROPHIL [1]: 1057 CELLS/uL
- BASOPHIL [1]: 0%
- EOSINOPHIL [1]: 0%
- ERYTHROCYTE COUNT [1]: 5.31 x10E6/uL
- HEMATOCRIT [1]: 33.78%
- LEUKOCYTE COUNT [1]: 12 x10E3/uL
- MEAN CORPUSCULAR HEMOGLOBIN [1]: 25.25 pg
- MEAN CORPUSCULAR HEMOGLOBIN CONCENTRATION [1]: 39.65 G/DL
- MEAN CORPUSCULAR VOLUME [1]: 63.65 fL
- MONOCYTE [1]: 0.5%
- NEUTROPHIL [1]: 8.33%
- NUCLEATED RED BLOOD CELLS [1]: 0 /100WBC
- PLATELET COUNT [1]: 1142 x10E3/uL
- ALANINE AMINOTRANSFERASE [1]: 57.17 u/L
- ALBUMIN [1]: 4.28 G/DL
- ALKALINE PHOSPHATASE [1]: 425.83 u/L
- ASPARTATE AMINOTRANSFERASE [1]: 93.83 u/L
- BLOOD UREA NITROGEN [1]: 14.17 mg/dL
- CHLORIDE [1]: 100 MEQ/L
- CHOLESTEROL [1]: 70.33 mg/dL
- CREATINE PHOSPHOKINASE [1]: 438.67 u/L
- CREATININE [1]: 0.19 mg/dL
- GLUCOSE [1]: 138.5 mg/dL
- LACTATE DEHYDROGENASE [1]: 190.17 u/L
- LIPASE [1]: 9.83 u/L
- PHOSPHORUS [1]: 11.05 mg/dL
- POTASSIUM [1]: 6.59 MEQ/L
- TOTAL BILIRUBIN [1]: 0.22 mg/dL
- URIC ACID [1]: 1.3 mg/dL
- ABSOLUTE BASOPHIL [2]: 0 CELLS/uL
- ABSOLUTE EOSINOPHIL [2]: 91.17 CELLS/uL
- ABSOLUTE LYMPHOCYTE [2]: 11847.67 CELLS/uL
- ABSOLUTE MONOCYTE [2]: 172.83 CELLS/uL
- ABSOLUTE SEGMENTED NEUTROPHIL [2]: 1105 CELLS/uL
- BASOPHIL [2]: 0%
- EOSINOPHIL [2]: 0.67%
- ERYTHROCYTE COUNT [2]: 5.35 x10E6/uL
- HEMATOCRIT [2]: 33.65%
- LEUKOCYTE COUNT [2]: 13.22 x10E3/uL
- MEAN CORPUSCULAR HEMOGLOBIN [2]: 25.12 pg
- MEAN CORPUSCULAR HEMOGLOBIN CONCENTRATION [2]: 39.9 G/DL
- MEAN CORPUSCULAR VOLUME [2]: 63 fL
- MONOCYTE [2]: 1.33%
- NEUTROPHIL [2]: 8.17%
- NUCLEATED RED BLOOD CELLS [2]: 0 /100WBC
- PLATELET COUNT [2]: 1347.83 x10E3/uL
- ALANINE AMINOTRANSFERASE [2]: 50 u/L
- ALBUMIN [2]: 4.1 G/DL
- ALKALINE PHOSPHATASE [2]: 329.17 u/L
- ASPARTATE AMINOTRANSFERASE [2]: 77.17 u/L
- BLOOD UREA NITROGEN [2]: 16.83 mg/dL
- CHLORIDE [2]: 99.83 MEQ/L
- CHOLESTEROL [2]: 75.67 mg/dL
- CREATINE PHOSPHOKINASE [2]: 295.83 u/L
- CREATININE [2]: 0.18 mg/dL
- GLUCOSE [2]: 156.33 mg/dL
- LACTATE DEHYDROGENASE [2]: 166.83 u/L
- LIPASE [2]: 9.83 u/L
- PHOSPHORUS [2]: 12.18 mg/dL
- POTASSIUM [2]: 6.69 MEQ/L
- TOTAL BILIRUBIN [2]: 0.22 mg/dL
- URIC ACID [2]: 1.6 mg/dL
- ABSOLUTE BASOPHIL [3]: 0 CELLS/uL
- ABSOLUTE EOSINOPHIL [3]: 18 CELLS/uL
- ABSOLUTE LYMPHOCYTE [3]: 1334 CELLS/uL
- ABSOLUTE MONOCYTE [3]: 44 CELLS/uL
- ABSOLUTE SEGMENTED NEUTROPHIL [3]: 3004 CELLS/uL
- BASOPHIL [3]: 0%
- EOSINOPHIL [3]: 0.33%
- ERYTHROCYTE COUNT [3]: 5.69 x10E6/uL
- HEMATOCRIT [3]: 36.67%
- LEUKOCYTE COUNT [3]: 4.4 x10E3/uL
- MEAN CORPUSCULAR HEMOGLOBIN [3]: 25.27 pg
- MEAN CORPUSCULAR HEMOGLOBIN CONCENTRATION [3]: 39.2 G/DL
- MEAN CORPUSCULAR VOLUME [3]: 64.47 fL
- MONOCYTE [3]: 1%
- NEUTROPHIL [3]: 69%
- NUCLEATED RED BLOOD CELLS [3]: 0 /100WBC
- PLATELET COUNT [3]: 1406 x10E3/uL
- ALANINE AMINOTRANSFERASE [3]: 146.33 u/L
- ALBUMIN [3]: 5.37 G/DL
- ALKALINE PHOSPHATASE [3]: 302 u/L
- ASPARTATE AMINOTRANSFERASE [3]: 178 u/L
- BLOOD UREA NITROGEN [3]: 25 mg/dL
- CHLORIDE [3]: 96.67 MEQ/L
- CHOLESTEROL [3]: 124.33 mg/dL
- CREATINE PHOSPHOKINASE [3]: 219.33 u/L
- CREATININE [3]: 0.27 mg/dL
- GLUCOSE [3]: 443 mg/dL
- LACTATE DEHYDROGENASE [3]: 492.67 u/L
- LIPASE [3]: 12.67 u/L
- PHOSPHORUS [3]: 11.8 mg/dL
- POTASSIUM [3]: 6.32 MEQ/L
- TOTAL BILIRUBIN [3]: 0.2 mg/dL
- URIC ACID [3]: 1.43 mg/dL
